# Experimental data from the CheMixHub ionic liquid set.
# ± gives the uncertainty stated by the source.
# Test: xn = mol fraction of the nth substance listed
smiles,measurement,setting,value
CCCC[n+]1ccn(C)c1.F[B-](F)(F)F + O,electrical conductivity,"308.15 K, 100 kPa, x1 = 7.98e-05",0.0658 ± 0.0011 S/m
same,viscosity,"308.15 K, 100 kPa, x1 = 0.0003603",0.751 ± 0.06 mPa·s
same,viscosity,"308.15 K, 100 kPa, x1 = 0.0003729",0.751 ± 0.061 mPa·s
same,viscosity,"308.15 K, 100 kPa, x1 = 0.0007203",0.789 ± 0.06 mPa·s
same,viscosity,"308.15 K, 100 kPa, x1 = 0.0007257",0.789 ± 0.061 mPa·s
same,viscosity,"308.15 K, 100 kPa, x1 = 0.00108",0.83 ± 0.061 mPa·s
same,viscosity,"308.15 K, 100 kPa, x1 = 0.0011",0.83 ± 0.061 mPa·s
same,viscosity,"308.15 K, 100.3 kPa, x1 = 0.0005439",0.7296 ± 0.0089 mPa·s
same,viscosity,"308.15 K, 100.3 kPa, x1 = 0.0009901",0.7358 ± 0.009 mPa·s
same,viscosity,"308.15 K, 100.3 kPa, x1 = 0.00501",0.7841 ± 0.0092 mPa·s
same,viscosity,"308.15 K, 100.3 kPa, x1 = 0.006973",0.8048 ± 0.0093 mPa·s
same,viscosity,"308.15 K, 100.3 kPa, x1 = 0.009052",0.835 ± 0.0094 mPa·s
same,viscosity,"308.15 K, 100.3 kPa, x1 = 0.01199",0.8681 ± 0.0096 mPa·s
same,viscosity,"308.15 K, 100.3 kPa, x1 = 0.01499",0.9047 ± 0.0098 mPa·s
same,viscosity,"308.15 K, 100.3 kPa, x1 = 0.017",0.9282 ± 0.0099 mPa·s
same,viscosity,"308.15 K, 101 kPa, x2 = 0.1002",38.1 ± 5 mPa·s
same,viscosity,"308.15 K, 101 kPa, x2 = 0.209",28.4 ± 3.8 mPa·s
same,electrical conductivity,"308.15 K, 101 kPa, x2 = 0.7002",4.24 ± 0.25 S/m
same,electrical conductivity,"308.2 K, 101 kPa, frequency 6e-05 MHz, x2 = 0.2",1.3 ± 0.013 S/m
same,electrical conductivity,"308.2 K, 101 kPa, frequency 6e-05 MHz, x2 = 0.4",2.04 ± 0.02 S/m
same,electrical conductivity,"308.2 K, 101 kPa, frequency 6e-05 MHz, x2 = 0.6",3.28 ± 0.033 S/m
same,electrical conductivity,"308.2 K, 101 kPa, frequency 6e-05 MHz, x2 = 0.8",5.28 ± 0.053 S/m
same,viscosity,"313 K, 100 kPa, x1 = 0.6023",13.87 ± 0.3 mPa·s
same,viscosity,"313.15 K, 100 kPa, x1 = 0.0003603",0.693 ± 0.06 mPa·s
same,viscosity,"313.15 K, 100 kPa, x1 = 0.0003729",0.693 ± 0.061 mPa·s
same,viscosity,"313.15 K, 100 kPa, x1 = 0.0007203",0.736 ± 0.06 mPa·s
same,viscosity,"313.15 K, 100 kPa, x1 = 0.0007257",0.736 ± 0.061 mPa·s
same,viscosity,"313.15 K, 100 kPa, x1 = 0.00108",0.779 ± 0.061 mPa·s
same,viscosity,"313.15 K, 100 kPa, x1 = 0.0011",0.779 ± 0.061 mPa·s
same,viscosity,"313.15 K, 100.3 kPa, x1 = 0.0005439",0.6614 ± 0.0086 mPa·s
same,viscosity,"313.15 K, 100.3 kPa, x1 = 0.0009901",0.6672 ± 0.0087 mPa·s
same,viscosity,"313.15 K, 100.3 kPa, x1 = 0.00501",0.7105 ± 0.0089 mPa·s
same,viscosity,"313.15 K, 100.3 kPa, x1 = 0.006973",0.7302 ± 0.0089 mPa·s
same,viscosity,"313.15 K, 100.3 kPa, x1 = 0.009052",0.7571 ± 0.0091 mPa·s
same,viscosity,"313.15 K, 100.3 kPa, x1 = 0.01199",0.7861 ± 0.0092 mPa·s
same,viscosity,"313.15 K, 100.3 kPa, x1 = 0.01499",0.8177 ± 0.0094 mPa·s
same,viscosity,"313.15 K, 100.3 kPa, x1 = 0.017",0.8403 ± 0.0095 mPa·s
same,viscosity,"313.15 K, 101 kPa, x2 = 0",46.5 ± 6 mPa·s
same,electrical conductivity,"313.15 K, 101 kPa, x2 = 0.1014",0.991 ± 0.059 S/m
same,viscosity,"313.15 K, 101 kPa, x2 = 0.1135",35.01 ± 0.84 mPa·s
same,viscosity,"313.15 K, 101 kPa, x2 = 0.5014",9 ± 1.4 mPa·s
same,viscosity,"313.15 K, 101 kPa, x2 = 0.6004",7.4 ± 1.2 mPa·s
same,electrical conductivity,"313.15 K, 101 kPa, x2 = 0.8493",6.99 ± 0.42 S/m
same,electrical conductivity,"313.15 K, 101 kPa, x2 = 0.9744",5.57 ± 0.34 S/m
same,electrical conductivity,"313.2 K, 101 kPa, frequency 6e-05 MHz, x2 = 0.2",1.45 ± 0.015 S/m
same,electrical conductivity,"313.2 K, 101 kPa, frequency 6e-05 MHz, x2 = 0.4",2.27 ± 0.023 S/m
same,electrical conductivity,"313.2 K, 101 kPa, frequency 6e-05 MHz, x2 = 0.6",3.69 ± 0.037 S/m
same,electrical conductivity,"313.2 K, 101 kPa, frequency 6e-05 MHz, x2 = 0.8",5.9 ± 0.059 S/m
same,viscosity,"318.15 K, 100 kPa, x1 = 0.0003603",0.638 ± 0.06 mPa·s
same,viscosity,"318.15 K, 100 kPa, x1 = 0.0003729",0.638 ± 0.061 mPa·s
same,viscosity,"318.15 K, 100 kPa, x1 = 0.0007203",0.681 ± 0.06 mPa·s
same,viscosity,"318.15 K, 100 kPa, x1 = 0.0007257",0.681 ± 0.061 mPa·s
same,viscosity,"318.15 K, 100 kPa, x1 = 0.00108",0.725 ± 0.06 mPa·s
same,viscosity,"318.15 K, 100 kPa, x1 = 0.0011",0.725 ± 0.061 mPa·s
same,viscosity,"318.15 K, 100.3 kPa, x1 = 0.0005439",0.6041 ± 0.0084 mPa·s
same,viscosity,"318.15 K, 100.3 kPa, x1 = 0.0009901",0.6099 ± 0.0084 mPa·s
same,viscosity,"318.15 K, 100.3 kPa, x1 = 0.003018",0.6311 ± 0.0085 mPa·s
same,viscosity,"318.15 K, 100.3 kPa, x1 = 0.00501",0.6489 ± 0.0086 mPa·s
same,viscosity,"318.15 K, 100.3 kPa, x1 = 0.006973",0.6654 ± 0.0087 mPa·s
same,viscosity,"318.15 K, 100.3 kPa, x1 = 0.009052",0.69 ± 0.0088 mPa·s
same,viscosity,"318.15 K, 100.3 kPa, x1 = 0.01199",0.7155 ± 0.0089 mPa·s
same,viscosity,"318.15 K, 100.3 kPa, x1 = 0.01499",0.7441 ± 0.009 mPa·s
same,viscosity,"318.15 K, 100.3 kPa, x1 = 0.017",0.7642 ± 0.0091 mPa·s
same,electrical conductivity,"318.15 K, 101 kPa, x2 = 0.3058",2 ± 0.12 S/m
same,viscosity,"318.15 K, 101 kPa, x2 = 0.6004",6.4 ± 1 mPa·s
same,electrical conductivity,"318.2 K, 101 kPa, frequency 6e-05 MHz, x2 = 0.2",1.59 ± 0.016 S/m
same,electrical conductivity,"318.2 K, 101 kPa, frequency 6e-05 MHz, x2 = 0.4",2.53 ± 0.025 S/m
same,electrical conductivity,"318.2 K, 101 kPa, frequency 6e-05 MHz, x2 = 0.6",4.13 ± 0.041 S/m
same,electrical conductivity,"318.2 K, 101 kPa, frequency 6e-05 MHz, x2 = 0.8",6.55 ± 0.066 S/m
same,viscosity,"323.15 K, 101 kPa, x2 = 0.06153",29.13 ± 0.56 mPa·s
same,viscosity,"323.15 K, 101 kPa, x2 = 0.209",16.7 ± 2.3 mPa·s
same,viscosity,"323.15 K, 101 kPa, x2 = 0.4001",8.4 ± 1.3 mPa·s
same,electrical conductivity,"323.15 K, 101 kPa, x2 = 0.8493",7.98 ± 0.48 S/m
same,electrical conductivity,"323.15 K, 101 kPa, x2 = 0.9496",8.04 ± 0.48 S/m
same,electrical conductivity,"323.15 K, 101 kPa, x2 = 0.9744",6.74 ± 0.41 S/m
same,electrical conductivity,"323.2 K, 101 kPa, frequency 6e-05 MHz, x2 = 0.2",1.75 ± 0.018 S/m
same,electrical conductivity,"323.2 K, 101 kPa, frequency 6e-05 MHz, x2 = 0.4",2.78 ± 0.028 S/m
same,electrical conductivity,"323.2 K, 101 kPa, frequency 6e-05 MHz, x2 = 0.6",4.57 ± 0.046 S/m
same,electrical conductivity,"323.2 K, 101 kPa, frequency 6e-05 MHz, x2 = 0.8",7.22 ± 0.072 S/m
same,viscosity,"333.15 K, 101 kPa, x2 = 0",24.86 ± 0.4 mPa·s
same,viscosity,"333.15 K, 101 kPa, x2 = 0.1135",18.67 ± 0.4 mPa·s
same,electrical conductivity,"333.2 K, 101 kPa, frequency 6e-05 MHz, x2 = 0.2",2.1 ± 0.021 S/m
same,electrical conductivity,"333.2 K, 101 kPa, frequency 6e-05 MHz, x2 = 0.4",3.36 ± 0.034 S/m
same,electrical conductivity,"333.2 K, 101 kPa, frequency 6e-05 MHz, x2 = 0.6",5.31 ± 0.053 S/m
same,electrical conductivity,"333.2 K, 101 kPa, frequency 6e-05 MHz, x2 = 0.8",8.54 ± 0.085 S/m
same,viscosity,"343.15 K, 101 kPa, x2 = 0.2984",6.5 ± 1 mPa·s
same,viscosity,"343.15 K, 101 kPa, x2 = 0.6004",3.75 ± 0.66 mPa·s
same,viscosity,"343.15 K, 101 kPa, x2 = 0.7",2.73 ± 0.49 mPa·s
same,viscosity,"343.15 K, 101 kPa, x2 = 0.8999",1.07 ± 0.21 mPa·s
same,electrical conductivity,"343.2 K, 101 kPa, frequency 6e-05 MHz, x2 = 0.2",2.49 ± 0.025 S/m
same,electrical conductivity,"343.2 K, 101 kPa, frequency 6e-05 MHz, x2 = 0.4",3.87 ± 0.039 S/m
same,electrical conductivity,"343.2 K, 101 kPa, frequency 6e-05 MHz, x2 = 0.6",6.27 ± 0.063 S/m
same,electrical conductivity,"343.2 K, 101 kPa, frequency 6e-05 MHz, x2 = 0.8",9.89 ± 0.099 S/m
same,viscosity,"353.15 K, 101 kPa, x2 = 0.1002",8.6 ± 1.3 mPa·s
same,viscosity,"353.15 K, 101 kPa, x2 = 0.3977",5.98 ± 0.29 mPa·s
same,viscosity,"353.15 K, 101 kPa, x2 = 0.6004",3.19 ± 0.57 mPa·s
same,electrical conductivity,"353.2 K, 101 kPa, frequency 6e-05 MHz, x2 = 0.2",2.94 ± 0.029 S/m
same,electrical conductivity,"353.2 K, 101 kPa, frequency 6e-05 MHz, x2 = 0.4",4.56 ± 0.046 S/m
same,electrical conductivity,"353.2 K, 101 kPa, frequency 6e-05 MHz, x2 = 0.6",7.44 ± 0.074 S/m
same,electrical conductivity,"353.2 K, 101 kPa, frequency 6e-05 MHz, x2 = 0.8",11.5 ± 0.12 S/m
same,viscosity,"363.15 K, 101 kPa, x2 = 0.03402",11 ± 0.18 mPa·s
same,viscosity,"363.15 K, 101 kPa, x2 = 0.06153",10.4 ± 0.18 mPa·s
same,viscosity,"363.15 K, 101 kPa, x2 = 0.2802",6.65 ± 0.19 mPa·s
same,viscosity,"373.15 K, 101 kPa, x2 = 0",9.55 ± 0.15 mPa·s
same,viscosity,"373.15 K, 101 kPa, x2 = 0.06153",8.6 ± 0.15 mPa·s
